Test results taken from patent US11795177B2, “Substituted quinoline analogs as aldehyde dehydrogenase 1A1 (ALDH1A1) inhibitors” (THE UNITED STATES OF AMERICA, AS REPRESENTED BY THE …, priority 2017, dated 2023).
Counter-ions that a name gives are not always drawn. Each block holds one compound with its values, some of them ahead of it.

Columns and labels:
[1] = target: T1, ALDH1A1 enzyme (Homo sapiens, UniProt P00352); assay: ALDH1A1 enzymatic assay (in vitro); assay type: biochemical; conditions: ALDH1A1 enzyme 20 nM, NAD+ 1 mM, propionaldehyde 80 μM; read-out: ALDH1A1 IC50
T1 sequence (P00352 1-501): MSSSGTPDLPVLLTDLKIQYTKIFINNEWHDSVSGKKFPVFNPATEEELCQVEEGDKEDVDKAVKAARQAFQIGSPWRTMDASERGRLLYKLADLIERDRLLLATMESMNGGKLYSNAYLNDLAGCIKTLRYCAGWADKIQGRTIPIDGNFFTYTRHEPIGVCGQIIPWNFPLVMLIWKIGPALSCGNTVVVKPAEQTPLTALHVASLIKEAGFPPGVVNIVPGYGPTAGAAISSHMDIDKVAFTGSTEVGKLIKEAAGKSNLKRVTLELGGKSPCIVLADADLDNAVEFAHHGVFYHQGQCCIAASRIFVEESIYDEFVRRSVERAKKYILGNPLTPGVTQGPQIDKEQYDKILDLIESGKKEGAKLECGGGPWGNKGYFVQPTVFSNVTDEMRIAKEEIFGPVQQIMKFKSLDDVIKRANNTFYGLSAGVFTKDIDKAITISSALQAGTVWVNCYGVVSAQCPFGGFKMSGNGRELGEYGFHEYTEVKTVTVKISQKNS
Procedure: Example 358. ALDH1A1 Enzymatic Assay (In Vitro Assay)
3 μL of ALDH1A1 enzyme (final concentration 20 nM) or assay buffer (100 mM HEPES pH 7.5 with 0.01% Tween 20) were dispensed into a 1,536-well solid-bottom black plate (Greiner Bio One, Monroe, N.C.) followed by pin-tool transfer (23 nL) of candidate inhibitors (final concentration range 968 pM to 57.2 μM) and control (Bay 11-7085, final concentration range 1.31 nM to 2.86 μM). Samples were incubated (RT, protected from light) for 15 minutes followed by a 1 μL substrate addition of NAD^+ and Propionaldehyde (final concentrations of 1 mM and 80 μM, respectively). Plates were centrifuged at 1,000 rpm for 15 seconds, then read in kinetic mode on a ViewLux High-throughput CCD imager (Perkin-Elmer) equipped with standard UV fluorescence optics (340 nm excitation, 450 nm emission) for 10 minutes. The change in fluorescence intensity over the 10-minute reaction period was normalized against no-inhibitor and no-enzyme controls and the resulting percent inhibition data were fitted for biological activity.

[2] = test system: MIA PaCa-2 cells; assay: MIA PaCa2 cell-based assay (1,536-well high-content imaging ALDEFLUOR assay); parameters: species or system human; conditions: ALDEFLUOR BAAA substrate 500 nM, 30 minutes
Summary of the method: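 High-content ALDEFLUOR imaging readout: BAA-retaining cells in FITC channel scored against Hoechst-counted nuclei. Before imaging, MIA PaCa-2 cells seeded at 1,000 per well received final 500 nM BAAA and 0.5 nM Hoechst with compounds in 16-point series (1.4 nM to 47.8 μM), 30 min, 37° C.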

Compound: CCOC(=O)N1CCN(C(=O)c2cnc3ccc(F)cc3c2N2CCC(C)(C#N)CC2)CC1 [Example 88, Ethyl 4-(4-(4-cyano-4-methylpiperidin-1-yl)-6-fluoroquinoline-3-carbonyl)piperazine-1-carboxylate]
IC50 [1]: < 500 nM
IC50 ([2]; Homo sapiens, 0.5 h): > 10000 nM

Compound: CCNC(=O)N1CCN(C(=O)c2cnc3cc(OC)c(OC)cc3c2N2CCC(C)(C#N)CC2)CC1 [Example 115, 4-(4-(4-cyano-4-methylpiperidin-1-yl)-6,7-dimethoxyquinoline-3-carbonyl)-N-ethylpiperazine-1-carboxamide]
IC50 [1]: < 500 nM
IC50 ([2]; Homo sapiens, 0.5 h): > 10000 nM

Compound: CC1(C#N)CCN(c2c(C(=O)N3CCN(S(=O)(=O)N4CCCC4)CC3)cnc3cc(F)c(F)cc23)CC1 [Example 178, 1-(6,7-difluoro-3-(4-(pyrrolidin-1-ylsulfonyl)piperazine-1-carbonyl)quinolin-4-yl)-4-methylpiperidine-4-carbonitrile]
IC50 [1]: 1000 to 10000 nM
IC50 ([2]; Homo sapiens, 0.5 h): > 10000 nM

Compound: CCN(CC)C(=O)N1CCN(C(=O)c2cnc3cc(F)c(F)cc3c2N2CCC(C)(C#N)CC2)CC1 [Example 174, 4-(4-(4-cyano-4-methylpiperidin-1-yl)-6,7-difluoroquinoline-3-carbonyl)-N,N-diethylpiperazine-1-carboxamide]
IC50 [1]: 500 to 1000 nM
IC50 ([2]; Homo sapiens, 0.5 h): 1000 to 10000 nM

Compound: COc1ccc2ncc(C(=O)N3CCN(S(C)(=O)=O)CC3)c(N3CCC4(CC3)OCCO4)c2c1 [Example 13, (6-methoxy-4-(1,4-dioxa-8-azaspiro[4.5]decan-8-yl)quinolin-3-yl)(4-(methylsulfonyl)piperazin-1-yl)methanone, TFA]
IC50 [1]: < 500 nM
IC50 ([2]; Homo sapiens, 0.5 h): 1000 to 10000 nM

Compound: CS(=O)(=O)N1CCN(C(=O)c2cnc3ccc(F)cc3c2-c2ccc(/C(C#N)=C/C3CC3)cc2)CC1 [Cpd. 357, (Z)-3-cyclopropyl-2-(4-(6-fluoro-3-(4-(methylsulfonyl)piperazine-1-carbonyl)quinolin-4-yl)phenyl)acrylonitrile]
IC50 [1]: < 500 nM
IC50 ([2]; Homo sapiens, 0.5 h): < 500 nM

Compound: 4-(4-cyano-4-phenylpiperidin-1-yl)-6-fluoro-N-((1R,3R)-3-hydroxycyclobutyl)quinoline-3-carboxamide [Cpd. 330]
IC50 [1]: < 500 nM
IC50 [2]: < 500 nM

Compound: COc1ccc2ncc(C(=O)N3CCC(N4CCCC4)CC3)c(N3CCC4(CC3)OCCO4)c2c1 [Example 11, (6-methoxy-4-(1,4-dioxa-8-azaspiro[4.5]decan-8-yl)quinolin-3-yl)(4-(pyrrolidin-1-yl)piperidin-1-yl)methanone, TFA]
IC50 [1]: > 10000 nM
IC50 ([2]; Homo sapiens, 0.5 h): > 10000 nM

Compound: O=C(c1cnc2ccc(F)cc2c1N1CCC2(CC1)OCCO2)N1CCN(C(=O)N2CCCC2)CC1 [Example 150, (6-fluoro-4-(1,4-dioxa-8-azaspiro[4.5]decan-8-yl)quinolin-3-yl)(4-(pyrrolidine-1-carbonyl)piperazin-1-yl)methanone]
IC50 [1]: < 500 nM
IC50 ([2]; Homo sapiens, 0.5 h): > 10000 nM

Compound: CCNC(=O)N1CCN(C(=O)c2cnc3ccc(OC)cc3c2N2CCC3(CC2)OCCO3)CC1 [Example 43, N-ethyl-4-(6-methoxy-4-(1,4-dioxa-8-azaspiro[4.5]decan-8-yl)quinoline-3-carbonyl)piperazine-1-carboxamide]
IC50 [1]: < 500 nM
IC50 ([2]; Homo sapiens, 0.5 h): 1000 to 10000 nM

Compound: CC1(C#N)CCN(c2c(C(=O)N3CCC(C(=O)C4CC4)CC3)cnc3cc(F)c(F)cc23)CC1 [Example 196, 1-(3-(4-(cyclopropanecareonyl)piperidine-1-carbonyl)-6,7-difluoroquinolin-4-yl)-4-methylpiperidine-4-carbonitrile]
IC50 [1]: < 500 nM
IC50 ([2]; Homo sapiens, 0.5 h): 1000 to 10000 nM

The remaining lines, values ahead:

IC50 [1]: < 500 nM
IC50 ([2]; Homo sapiens, 0.5 h): 1000 to 10000 nM
Compound: CS(=O)(=O)N1CCN(C(=O)c2cnc3ccc(F)cc3c2N2CCC3(CCOC3=O)CC2)CC1 [Example 249, 8-(6-fluoro-3-(4-(methylsulfonyl)piperazine-1-carbonyl)quinolin-4-yl)-2-oxa-8-azaspiro[4.5]decan-1-one]

IC50 [1]: < 500 nM
IC50 ([2]; Homo sapiens, 0.5 h): 1000 to 10000 nM
Compound: C[C@H]1CN(C(=O)c2cnc3ccc(F)cc3c2N2CCC(C)(C#N)CC2)CCN1C(=O)C1CC1 [Example 227, (S)-1-(3-(4-(cyclopropanecarbonyl)-3-methylpiperazine-1-carbonyl)-6-fluoroquinolin-4-yl)-4-methylpiperidine-4-carbonitrile]

IC50 [1]: < 500 nM
IC50 ([2]; Homo sapiens, 0.5 h): > 10000 nM
Compound: CC(C)C(=O)N1CCN(C(=O)c2cnc3ccccc3c2N2CCC(C)(C#N)CC2)CC1 [Example 95, 1-(3-(4-isobutyrylpiperazine-1-carbonyl)quinolin-4-yl)-4-methylpiperidine-4-carbonitrile]

IC50 [1]: < 500 nM
IC50 ([2]; Homo sapiens, 0.5 h): 1000 to 10000 nM
Compound: CC1(C#N)CCN(c2c(C(=O)N3CCC(S(C)(=O)=O)CC3)cnc3c(F)cc(F)cc23)CC1 [Example 189, 1-(6,8-difluoro-3-(4-(methylsulfonyl)piperidine-1-carbonyl)quinolin-4-yl)-4-methylpiperidine-4-carbonitrile]

IC50 [1]: < 500 nM
IC50 ([2]; Homo sapiens, 0.5 h): 1000 to 10000 nM
Compound: CCNC(=O)N1CCN(C(=O)c2cnc3c(F)c(OC)c(F)cc3c2N2CCC3(CC2)OCCO3)CC1 [Example 143, 4-(6,8-difluoro-7-methoxy-4-(1,4-dioxa-8-azaspiro[4.5]decan-8-yl)quinoline-3-carbonyl)-N-ethylpiperazine-1-carboxamide]

IC50 [1]: < 500 nM
IC50 ([2]; Homo sapiens, 0.5 h): 1000 to 10000 nM
Compound: CCC(=O)N1CCN(C(=O)c2cnc3ccc(OC)cc3c2N2CCC3(CC2)OCCO3)CC1 [Example 6, 1-(4-(6-methoxy-4-(1,4-dioxa-8-azaspiro[4.5]decan-8-yl)quinoline-3-carbonyl)piperazin-1-yl)propan-1-one, TFA]

IC50 [1]: 1000 to 10000 nM
IC50 ([2]; Homo sapiens, 0.5 h): > 10000 nM
Compound: CC1(C#N)CCN(c2c(C(=O)N3CCN(S(=O)(=O)N4CCCC4)CC3)cnc3ccc(F)cc23)CC1 [Example 158, 1-(6-fluoro-3-(4-(pyrrolidin-1-ylsulfonyl)piperazine-1-carbonyl)quinolin-4-yl)-4-methylpiperidine-4-carbonitrile]

IC50 [1]: < 500 nM
IC50 ([2]; Homo sapiens, 0.5 h): > 10000 nM
Compound: COc1ccc2ncc(C(=O)N3CCN(C(=O)C4CC4)CC3)c(N3CCC4(CCCO4)CC3)c2c1 [Example 24, (4-(cyclopropanecarbonyl)piperazin-1-yl)(6-methoxy-4-(1-oxa-8-azaspiro[4.5]decan-8-yl)quinolin-3-yl)methanone]

IC50 [1]: 500 to 1000 nM
IC50 ([2]; Homo sapiens, 0.5 h): 1000 to 10000 nM
Compound: CCN(CC)C(=O)N1CCN(C(=O)c2cnc3c(F)cc(F)cc3c2N2CCC(C)(C#N)CC2)CC1 [Example 164, 4-(4-(4-cyano-4-methylpiperidin-1-yl)-6,8-difluoroquinoline-3-carbonyl)-N,N-diethylpiperazine-1-carboxamide]

IC50 [1]: < 500 nM
IC50 ([2]; Homo sapiens, 0.5 h): 1000 to 10000 nM
Compound: COc1ccc2c(N3CCC4(CC3)OCCO4)c(C(=O)N3CCN(S(C)(=O)=O)CC3)cnc2c1 [Example 129, (7-methoxy-4-(1,4-dioxa-8-azaspiro[4.5]decan-8-yl)quinolin-3-yl)(4-(methylsulfonyl)piperazin-1-yl)methanone]

IC50 [1]: < 500 nM
IC50 ([2]; Homo sapiens, 0.5 h): 1000 to 10000 nM
Compound: COc1cc2ncc(C(=O)N3CCN(S(=O)(=O)C4CC4)CC3)c(N3CCC(C)(C#N)CC3)c2cc1OC [Example 114, 1-(3-(4-(cyclopropylsulfonyl)piperazine-1-carbonyl)-6,7-dimethoxyquinolin-4-yl)-4-methylpiperidine-4-carbonitrile]

IC50 [1]: < 500 nM
IC50 ([2]; Homo sapiens, 0.5 h): 1000 to 10000 nM
Compound: COc1ccc2ncc(C(=O)N3CCN(C(=O)C4CC4)CC3)c(N3CCC(C)(C#N)CC3)c2c1 [Example 27, 1-(3-(4-(cyclopropanecarbonyl)piperazine-1-carbonyl)-6-methoxyquinolin-4-yl)-4-methylpiperidine-4-carbonitrile]

IC50 [1]: < 500 nM
IC50 ([2]; Homo sapiens, 0.5 h): 1000 to 10000 nM
Compound: COc1cc2ncc(C(=O)N3CCN(S(C)(=O)=O)CC3)c(N3CCC(C)(C#N)CC3)c2cc1OC [Example 113, 1-(6,7-dimethoxy-3-(4-(methylsulfonyl)piperazine-1-carbonyl)quinolin-4-yl)-4-methylpiperidine-4-carbonitrile]

IC50 [1]: 1000 to 10000 nM
IC50 ([2]; Homo sapiens, 0.5 h): 1000 to 10000 nM
Compound: O=C1CC2(CCN(c3c(C(=O)N4CCN(C(=O)C5CC5)CC4)cnc4ccc(F)cc34)CC2)c2ccccc21 [Example 203, 1′-(3-(4-(cyclopropanecarbonyl)piperazine-1-carbonyl)-6-fluoroquinolin-4-yl)spiro[indene-1,4′-piperidin]-3(2H)-one]
